From ChEMBL document CHEMBL1201862, “PubChem BioAssay data set” (2004)
Each block holds one compound with its values, some of them ahead of it. Calls of active or inactive are those of the source.

What was measured:
[1] = blockers of HIV-1 envelope-mediated cell-cell fusion – cherry-pick, dose response (AID 652057); format: functional, cell-based
[2] = HIV-1 AD8 envelope cell-cell fusion blockers – cherry-pick, dose response (AID 652062); format: functional, cell-based;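 further: luciferase signal from cell-cell fusion driven by HIV-1 clade B AD8 Env; potency is for inhibitors of fusion seen as a drop in luminescence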
[3] = tested on: HEK293; experiment: cells; conditions: Homo sapiens
[4] = off-target signal loss in HeLa-CEM21 co-culture – HeLa F-luc CTL cells, cherry-picked, counter-screen for HIV-1 Env fusion inhibitor project, dose response (AID 652040); format: functional, cell-based;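 further: potency for signal decrease marking cytotoxic or nonspecific inhibition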
[5] = tested on: HEK293; experiment: cells; conditions: Homo sapiens; remark: listed apart in the source
[6] = blockers of HIV-1 ZM109 envelope-driven cell-cell fusion – HeLa effector, CEM target cells, luciferase, cherry-pick, dose response (AID 652058); format: functional, cell-based;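 further: luciferase signal from HIV-1 Env mediated cell-cell fusion of effector and target cells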
[7] = target: T1, Cytochrome P450 2D6 (Homo sapiens, UniProt P10635);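 further: CYP2D6 member of a cytochrome P450 panel assay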
T1 sequence (P10635 whole entry): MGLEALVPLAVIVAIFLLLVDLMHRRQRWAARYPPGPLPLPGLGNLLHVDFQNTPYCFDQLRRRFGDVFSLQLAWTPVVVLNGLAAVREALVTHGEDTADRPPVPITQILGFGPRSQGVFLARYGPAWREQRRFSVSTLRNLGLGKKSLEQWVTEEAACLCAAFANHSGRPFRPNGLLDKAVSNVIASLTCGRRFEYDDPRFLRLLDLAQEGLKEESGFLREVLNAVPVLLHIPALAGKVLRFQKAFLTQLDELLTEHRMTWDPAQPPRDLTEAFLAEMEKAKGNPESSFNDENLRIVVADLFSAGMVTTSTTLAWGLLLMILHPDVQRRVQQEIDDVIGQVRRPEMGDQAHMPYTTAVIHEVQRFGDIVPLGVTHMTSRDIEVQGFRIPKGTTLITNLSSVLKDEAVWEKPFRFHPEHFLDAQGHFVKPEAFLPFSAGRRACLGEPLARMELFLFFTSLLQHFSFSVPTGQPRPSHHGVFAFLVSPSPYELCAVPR

[8] = target: Cytochrome P450 3A4 (Homo sapiens, UniProt P08684);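 further: CYP3A4 tested as one member of a cytochrome P450 panel screen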
Cytochrome P450 3A4, sequence (P08684 whole entry): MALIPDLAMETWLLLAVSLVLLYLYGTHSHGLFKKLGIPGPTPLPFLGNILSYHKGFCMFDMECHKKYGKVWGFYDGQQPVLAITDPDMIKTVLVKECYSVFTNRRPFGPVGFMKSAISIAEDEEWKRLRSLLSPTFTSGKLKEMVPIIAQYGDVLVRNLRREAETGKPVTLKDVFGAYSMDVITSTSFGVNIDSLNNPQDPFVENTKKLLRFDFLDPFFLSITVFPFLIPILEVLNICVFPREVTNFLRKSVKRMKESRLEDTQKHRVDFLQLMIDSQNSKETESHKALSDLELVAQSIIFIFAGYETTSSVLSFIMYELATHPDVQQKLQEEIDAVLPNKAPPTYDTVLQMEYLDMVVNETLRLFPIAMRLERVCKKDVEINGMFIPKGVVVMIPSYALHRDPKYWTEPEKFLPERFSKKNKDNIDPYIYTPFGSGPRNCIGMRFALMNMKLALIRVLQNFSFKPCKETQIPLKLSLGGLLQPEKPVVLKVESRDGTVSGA

[9] = target: Cytochrome P450 2C19 (Homo sapiens, UniProt P33261); experiment: Cytochrome panel assay with activity outcomes. Panel member name: p450-cyp2c19 Compounds with AC50 equal or less than 10 uM are considered active; format: functional
Cytochrome P450 2C19, sequence (P33261 whole entry): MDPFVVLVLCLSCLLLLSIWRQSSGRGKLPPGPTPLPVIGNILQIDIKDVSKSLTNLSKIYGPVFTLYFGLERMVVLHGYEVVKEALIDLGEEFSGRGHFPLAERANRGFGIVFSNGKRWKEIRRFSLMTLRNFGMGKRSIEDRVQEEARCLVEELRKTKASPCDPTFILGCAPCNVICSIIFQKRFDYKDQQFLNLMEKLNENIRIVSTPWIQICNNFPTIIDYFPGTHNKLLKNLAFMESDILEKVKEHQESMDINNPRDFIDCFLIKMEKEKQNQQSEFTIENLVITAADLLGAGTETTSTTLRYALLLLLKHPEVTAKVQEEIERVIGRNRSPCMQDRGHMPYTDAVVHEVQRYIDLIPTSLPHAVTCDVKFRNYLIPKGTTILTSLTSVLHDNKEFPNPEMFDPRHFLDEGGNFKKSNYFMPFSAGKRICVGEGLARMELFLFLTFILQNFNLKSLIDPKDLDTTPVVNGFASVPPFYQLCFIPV

[10] = target: Cytochrome P450 2C9 (Homo sapiens, UniProt P11712)
Cytochrome P450 2C9, sequence (P11712 whole entry): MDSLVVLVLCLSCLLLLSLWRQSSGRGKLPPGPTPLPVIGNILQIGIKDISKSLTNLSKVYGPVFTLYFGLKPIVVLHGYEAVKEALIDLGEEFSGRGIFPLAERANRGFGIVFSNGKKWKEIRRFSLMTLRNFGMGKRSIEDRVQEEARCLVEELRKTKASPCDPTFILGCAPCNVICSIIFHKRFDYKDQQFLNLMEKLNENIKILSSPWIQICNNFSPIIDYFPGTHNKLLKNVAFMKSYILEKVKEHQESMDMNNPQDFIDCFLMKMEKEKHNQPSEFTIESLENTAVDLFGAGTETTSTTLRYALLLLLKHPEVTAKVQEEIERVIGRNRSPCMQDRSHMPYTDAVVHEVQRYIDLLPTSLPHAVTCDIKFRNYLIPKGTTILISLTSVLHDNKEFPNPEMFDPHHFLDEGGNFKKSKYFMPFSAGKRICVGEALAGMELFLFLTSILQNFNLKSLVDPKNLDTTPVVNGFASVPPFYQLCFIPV

[11] = target: T2, Ubiquitin-conjugating enzyme E2 N (Homo sapiens, UniProt P61088); format: functional
T2 sequence (P61088 whole entry): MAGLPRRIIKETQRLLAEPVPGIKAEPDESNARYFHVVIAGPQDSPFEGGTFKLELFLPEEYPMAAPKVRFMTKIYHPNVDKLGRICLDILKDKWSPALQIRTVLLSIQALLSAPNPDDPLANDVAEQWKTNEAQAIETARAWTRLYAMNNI

[12] = NIH3T3 cell viability loss – ATP luminescence, mouse fibroblasts, counter-screen, dose response (AID 2010); format: functional, cell-based;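 further: cells exposed to compound for about 90 hours before reading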
[13] = Trypanosoma cruzi growth suppression in host cells – NIH3T3 host cells, beta-gal luminescence, confirmation (AID 2044); format: functional, cell-based;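 further: intracellular parasites grown in NIH/3T3 mouse fibroblasts as host cells; luminescent beta-galactosidase reporter signal from transgenic T. cruzi replicating inside host cells; inhibitors lower the luminescence signal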
[14] = target: T3, Bcl-2-related protein A1 (Mus musculus, UniProt Q07440); format: functional;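 further: confirmatory dose–response counterscreen on Bfl-1, used to check hits from a UBC13 polyubiquitin inhibitor campaign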
T3 sequence (Q07440 whole entry): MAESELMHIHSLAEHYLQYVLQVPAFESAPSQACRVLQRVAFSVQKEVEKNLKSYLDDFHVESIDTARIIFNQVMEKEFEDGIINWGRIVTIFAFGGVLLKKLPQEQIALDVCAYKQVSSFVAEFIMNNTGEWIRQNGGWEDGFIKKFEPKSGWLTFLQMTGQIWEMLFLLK

[15] = target: T2, Ubiquitin-conjugating enzyme E2 N; format: functional; remark: listed apart in the source
[16] = target: T4, DNA repair and recombination protein RAD54-like (Homo sapiens, UniProt Q92698); experiment: RAD54 Holliday junction migration blockers – biochemical, fluorescence, cherry-picked samples, dose series, confirmation (AID 651657); format: functional
T4 sequence (Q92698 whole entry): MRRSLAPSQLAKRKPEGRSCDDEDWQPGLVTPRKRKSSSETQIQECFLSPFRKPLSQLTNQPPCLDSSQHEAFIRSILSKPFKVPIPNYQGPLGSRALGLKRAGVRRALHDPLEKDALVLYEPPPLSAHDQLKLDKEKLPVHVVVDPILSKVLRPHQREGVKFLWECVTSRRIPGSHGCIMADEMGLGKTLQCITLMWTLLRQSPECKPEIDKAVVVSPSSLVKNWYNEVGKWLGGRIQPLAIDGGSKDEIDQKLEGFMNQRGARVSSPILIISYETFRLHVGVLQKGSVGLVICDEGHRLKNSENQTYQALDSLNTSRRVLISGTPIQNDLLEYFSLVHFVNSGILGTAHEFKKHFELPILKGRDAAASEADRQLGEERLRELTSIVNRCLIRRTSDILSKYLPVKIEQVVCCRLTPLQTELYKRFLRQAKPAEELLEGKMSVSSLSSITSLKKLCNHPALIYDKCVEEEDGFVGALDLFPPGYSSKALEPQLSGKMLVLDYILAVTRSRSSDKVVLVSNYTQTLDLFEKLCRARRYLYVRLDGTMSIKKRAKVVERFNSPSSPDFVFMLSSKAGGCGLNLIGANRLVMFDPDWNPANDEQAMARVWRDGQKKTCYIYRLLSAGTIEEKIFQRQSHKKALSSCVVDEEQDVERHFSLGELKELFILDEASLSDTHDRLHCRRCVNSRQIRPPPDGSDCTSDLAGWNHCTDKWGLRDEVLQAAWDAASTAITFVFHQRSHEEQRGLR

[17] = target: T5, Type-1 angiotensin II receptor (Homo sapiens, UniProt P30556); experiment: antagonism of angiotensin II type 1 receptor – cell-based, uHTS hits, selectivity assay for APJ receptor antagonist project, dose response (AID 463214); format: functional;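 further: antagonist potency against angiotensin II stimulated AT1 response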
T5 sequence (P30556 whole entry): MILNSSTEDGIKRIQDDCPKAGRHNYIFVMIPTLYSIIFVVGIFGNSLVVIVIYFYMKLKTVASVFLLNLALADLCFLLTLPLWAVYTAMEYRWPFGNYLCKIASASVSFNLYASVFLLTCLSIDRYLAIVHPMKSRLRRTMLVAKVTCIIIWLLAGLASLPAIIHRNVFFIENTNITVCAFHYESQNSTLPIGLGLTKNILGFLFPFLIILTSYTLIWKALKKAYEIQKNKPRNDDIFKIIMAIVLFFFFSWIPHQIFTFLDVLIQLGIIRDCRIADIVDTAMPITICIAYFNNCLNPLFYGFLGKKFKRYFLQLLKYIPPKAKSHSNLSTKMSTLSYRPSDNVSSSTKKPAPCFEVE

[18] = target: Beta-galactosidase (Escherichia coli, UniProt Q8VNN2); experiment: PubChem AID 485352; format: functional
Beta-galactosidase, sequence (Q8VNN2 whole entry): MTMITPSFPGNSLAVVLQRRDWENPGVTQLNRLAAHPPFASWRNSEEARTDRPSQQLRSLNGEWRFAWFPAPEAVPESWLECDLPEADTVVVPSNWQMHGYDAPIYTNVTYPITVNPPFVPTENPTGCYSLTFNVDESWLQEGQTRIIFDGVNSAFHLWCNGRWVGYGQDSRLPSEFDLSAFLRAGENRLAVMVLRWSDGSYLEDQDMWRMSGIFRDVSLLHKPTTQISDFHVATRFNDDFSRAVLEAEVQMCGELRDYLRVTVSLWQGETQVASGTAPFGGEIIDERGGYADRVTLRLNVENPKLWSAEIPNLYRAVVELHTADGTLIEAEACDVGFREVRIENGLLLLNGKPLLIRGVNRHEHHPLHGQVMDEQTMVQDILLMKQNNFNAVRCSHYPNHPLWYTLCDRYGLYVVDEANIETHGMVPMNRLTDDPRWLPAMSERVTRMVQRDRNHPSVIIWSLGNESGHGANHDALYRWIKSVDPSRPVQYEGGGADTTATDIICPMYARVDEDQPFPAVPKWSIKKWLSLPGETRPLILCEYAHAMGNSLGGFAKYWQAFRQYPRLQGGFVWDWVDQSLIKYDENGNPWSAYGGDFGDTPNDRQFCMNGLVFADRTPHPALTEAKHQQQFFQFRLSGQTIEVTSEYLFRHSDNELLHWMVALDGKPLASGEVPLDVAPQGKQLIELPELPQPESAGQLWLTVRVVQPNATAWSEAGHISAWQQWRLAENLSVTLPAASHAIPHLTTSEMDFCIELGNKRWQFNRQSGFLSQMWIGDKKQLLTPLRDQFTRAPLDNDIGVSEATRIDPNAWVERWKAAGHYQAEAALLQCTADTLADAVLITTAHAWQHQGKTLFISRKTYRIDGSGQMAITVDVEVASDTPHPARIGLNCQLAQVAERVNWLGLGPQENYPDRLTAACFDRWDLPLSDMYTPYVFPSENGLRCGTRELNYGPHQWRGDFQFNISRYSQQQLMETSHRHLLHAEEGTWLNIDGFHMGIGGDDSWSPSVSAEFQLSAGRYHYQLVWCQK

[19] = target: Mu-type opioid receptor (Homo sapiens, UniProt P35372); experiment: (§1) Counterscreen for agonists of heterodimerization of the mu 1 (OPRM1) and delta 1 (OPRD1) opioid receptors: Luminescence-based cell-based high throughput dose response assay to identify agonists of OPRM1 homodimerization.; format: functional
Mu-type opioid receptor, sequence (P35372 whole entry): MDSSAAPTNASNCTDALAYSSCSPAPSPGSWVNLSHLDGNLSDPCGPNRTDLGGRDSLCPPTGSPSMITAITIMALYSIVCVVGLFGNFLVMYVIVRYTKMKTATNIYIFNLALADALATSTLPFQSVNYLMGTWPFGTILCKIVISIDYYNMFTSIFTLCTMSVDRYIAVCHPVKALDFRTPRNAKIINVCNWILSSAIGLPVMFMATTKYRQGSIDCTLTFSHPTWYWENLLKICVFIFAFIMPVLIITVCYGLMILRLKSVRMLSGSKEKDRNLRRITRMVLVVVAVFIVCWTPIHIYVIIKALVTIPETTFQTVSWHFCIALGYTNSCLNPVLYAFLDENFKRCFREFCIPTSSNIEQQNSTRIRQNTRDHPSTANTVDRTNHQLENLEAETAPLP

[20] = target: 5-hydroxytryptamine receptor 5A (Homo sapiens, UniProt P47898); experiment: Counterscreen for agonists of OPRM1-OPRD1 heterodimerization: luminescence-based cell-based high throughput dose response assay to identify agonists of 5-hydroxytryptamine (serotonin) 5A receptor (HTR5A). [Related pubchem assays (depositor defined):AID504326, AID504355, AID504692, AID504904, AID504905]; format: functional
5-hydroxytryptamine receptor 5A, sequence (P47898 whole entry): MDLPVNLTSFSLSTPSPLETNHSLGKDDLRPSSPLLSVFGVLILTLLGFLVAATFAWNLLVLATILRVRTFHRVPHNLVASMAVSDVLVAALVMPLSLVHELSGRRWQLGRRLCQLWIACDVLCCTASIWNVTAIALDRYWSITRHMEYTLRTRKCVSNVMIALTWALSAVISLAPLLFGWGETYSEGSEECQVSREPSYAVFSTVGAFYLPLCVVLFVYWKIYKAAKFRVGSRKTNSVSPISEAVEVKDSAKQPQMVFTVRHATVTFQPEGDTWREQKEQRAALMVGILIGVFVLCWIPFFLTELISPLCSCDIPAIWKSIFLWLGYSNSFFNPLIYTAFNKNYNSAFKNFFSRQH

[21] = target: T6, Heat shock factor protein 1 (Mus musculus, UniProt P38532); experiment: enhancement of HSF1-driven luciferase signal – cell-based, NIH3T3, luminescence, dose retest, confirmation (AID 435004); format: functional;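 further: stress induced by proteasome inhibitor MG132 added 30 min after compound; luciferase reporter driven by HSF1 response element in NIH3T3 cells; actives raise luminescence as potentiators of the MG132 stress response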
T6 sequence (P38532 whole entry): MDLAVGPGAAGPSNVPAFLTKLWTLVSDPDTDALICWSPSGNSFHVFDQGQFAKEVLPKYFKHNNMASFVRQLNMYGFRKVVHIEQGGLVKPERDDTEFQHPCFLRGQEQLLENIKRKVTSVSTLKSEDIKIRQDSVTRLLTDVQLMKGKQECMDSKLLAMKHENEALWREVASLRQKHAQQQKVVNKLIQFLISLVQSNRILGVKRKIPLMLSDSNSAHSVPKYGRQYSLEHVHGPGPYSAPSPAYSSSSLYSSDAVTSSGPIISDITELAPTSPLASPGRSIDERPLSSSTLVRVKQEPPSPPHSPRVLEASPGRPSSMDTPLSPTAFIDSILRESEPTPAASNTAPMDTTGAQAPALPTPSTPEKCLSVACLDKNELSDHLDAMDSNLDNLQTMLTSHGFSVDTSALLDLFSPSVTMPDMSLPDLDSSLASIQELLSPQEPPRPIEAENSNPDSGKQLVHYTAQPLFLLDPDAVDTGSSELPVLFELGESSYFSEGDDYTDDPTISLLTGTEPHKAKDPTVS

[22] = target: Delta-type opioid receptor (Homo sapiens, UniProt P41143); experiment: as §1, with “of OPRD1” for “of OPRM1”, “homodimerization. [Related pubchem assays (depositor defined):AID504326, AID504355, AID504692, AID504904, AID504905]” for “homodimerization.”; format: functional
Delta-type opioid receptor, sequence (P41143 whole entry): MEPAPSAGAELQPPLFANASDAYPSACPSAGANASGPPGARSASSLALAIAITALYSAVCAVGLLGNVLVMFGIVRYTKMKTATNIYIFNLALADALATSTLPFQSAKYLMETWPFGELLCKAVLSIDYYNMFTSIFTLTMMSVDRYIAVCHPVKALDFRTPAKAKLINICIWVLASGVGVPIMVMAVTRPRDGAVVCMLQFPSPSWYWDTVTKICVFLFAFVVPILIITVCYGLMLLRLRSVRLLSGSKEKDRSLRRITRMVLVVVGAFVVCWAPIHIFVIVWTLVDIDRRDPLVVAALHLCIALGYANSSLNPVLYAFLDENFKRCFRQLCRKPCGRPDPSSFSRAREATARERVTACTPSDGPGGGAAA

[23] = target: T1, Cytochrome P450 2D6; remark: listed apart in the source
[24] = target: T7, Short transient receptor potential channel 4 (Mus musculus, UniProt Q9QUQ5); experiment: calcium entry via TRPC4 opening agents – cell-based, HEK293 TRPC4/mu-opioid, Fluo-4 calcium, dose response (AID 434937); format: functional
T7 sequence (Q9QUQ5 whole entry): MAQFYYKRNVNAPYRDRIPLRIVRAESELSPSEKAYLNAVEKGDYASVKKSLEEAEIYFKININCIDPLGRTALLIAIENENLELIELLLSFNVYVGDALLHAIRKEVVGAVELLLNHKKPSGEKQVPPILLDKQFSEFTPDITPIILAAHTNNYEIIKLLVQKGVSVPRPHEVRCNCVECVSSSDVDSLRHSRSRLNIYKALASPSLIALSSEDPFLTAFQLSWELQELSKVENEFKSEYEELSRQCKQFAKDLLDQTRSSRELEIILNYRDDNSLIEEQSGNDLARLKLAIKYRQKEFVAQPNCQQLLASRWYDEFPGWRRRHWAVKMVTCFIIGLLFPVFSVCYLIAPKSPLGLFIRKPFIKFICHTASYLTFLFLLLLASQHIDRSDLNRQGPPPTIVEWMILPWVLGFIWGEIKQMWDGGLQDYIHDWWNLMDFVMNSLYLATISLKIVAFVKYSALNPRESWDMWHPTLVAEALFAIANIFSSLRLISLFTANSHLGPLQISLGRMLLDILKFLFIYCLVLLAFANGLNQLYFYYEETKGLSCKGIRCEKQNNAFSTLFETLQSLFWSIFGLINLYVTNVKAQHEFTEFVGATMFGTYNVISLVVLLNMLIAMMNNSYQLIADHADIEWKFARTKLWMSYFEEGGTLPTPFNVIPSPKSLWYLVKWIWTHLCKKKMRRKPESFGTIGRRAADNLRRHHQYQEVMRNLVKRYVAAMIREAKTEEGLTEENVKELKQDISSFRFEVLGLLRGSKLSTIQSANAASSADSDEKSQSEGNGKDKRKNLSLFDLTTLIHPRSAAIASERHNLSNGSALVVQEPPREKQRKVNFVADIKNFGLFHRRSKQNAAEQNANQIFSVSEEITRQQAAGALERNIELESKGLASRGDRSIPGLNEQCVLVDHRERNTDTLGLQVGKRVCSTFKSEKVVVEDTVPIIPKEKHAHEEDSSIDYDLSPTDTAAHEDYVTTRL

SMILES: CC1CCC(NC(=O)CCn2ccc3cc(S(=O)(=O)N4CCCC4)ccc32)CC1 (stereo not drawn)
AC50 [1]: 3.53 µM (active) | AC50 [2]: 4.28 µM (active) | EC50 [3]: > 59.6 µM (inactive) | AC50 [4]: 5.19 µM (active) | EC50 [5]: > 59.6 µM (inactive) | AC50 [6]: 0.999 µM (active)

SMILES: COc1cc2nc(NCCCN3CCN(C)CC3)n3nc(-c4ccccc4)nc3c2cc1OC
IC50 [11]: 6.25 µM (active) | EC50 [12]: > 60 µM (not active) | EC50 [13]: 1.87 µM (active) | IC50 [14]: > 20 µM (inactive) | IC50 [15]: 17.6 µM (active) | AC50 [16]: 2.98 µM (active)

SMILES: NC(=O)c1ccccc1NC(=O)/C=C/c1cccc(Cl)c1
AC50 [10]: inconclusive

SMILES: CN(C)S(=O)(=O)n1cc(/C=C(\NC(=O)c2ccccc2Cl)C(=O)N2CCCC2)c2ccccc21
EC50 [3]: > 59.6 µM (inactive) | EC50 [5]: > 59.6 µM (inactive)

SMILES: NCC(O)CN.Oc1c(Cl)c(Cl)c(Cl)c(Cl)c1Cl
AC50 [9]: inactive | AC50 [8]: inactive | AC50 [23]: inactive

The next lines start with the values.

AC50 [7]: 39.8 µM (inconclusive) | AC50 [8]: inconclusive
SMILES: Cc1ccccc1-c1cc(Nc2ccccc2)ncn1

AC50 ([9]; read-out: AC50): 0.0316 µM (inconclusive) | AC50 [10]: inconclusive | AC50 [8]: inconclusive
SMILES: N=c1ccn2c(n1)O[C@@H]1[C@@H](O)[C@H](CO)O[C@H]12

IC50 [17]: 18 µM (active) | EC50 [18]: > 40 µM (inactive)
SMILES: CC(=O)Nc1cccc(C(=O)OCC(=O)c2ccc(S(=O)(=O)N3CCCCC3)cc2)c1

EC50 [19]: 70.5 µM (inactive) | EC50 [20]: > 92.5 µM (inactive) | EC50 [21]: > 260 µM (inactive) | EC50 [22]: > 92.5 µM (inactive)
SMILES: COc1ccc(-n2cc(CNCc3cccnc3)c(-c3cccc(F)c3)n2)cc1

EC50 [19]: 15.7 µM (inactive) | EC50 [20]: > 92.5 µM (inactive) | EC50 [24]: 2.11 µM (active) | EC50 [22]: > 92.5 µM (inactive)
SMILES: Cn1c(CN2CCN(c3cccc(Cl)c3)CC2)nc2ccccc21
